One data set addresses HEK-Kv4.3/KChIP2 (Homo sapiens, UniProt Q9NS61+Q9UK17). The note with it: CTP 0.1 to 30 µM; HEK cells; step to 40mV; 0.1% Pluronic F-68.
For the next data set, the target named is CHO-KCNQ1/minK (Homo sapiens, UniProt P15382+P51787). The following applies: CTP 0.1 to 30 µM; CHO cells; step to +60mV; 0.1% Pluronic F-68.
The target of another data set is KvLQT1/minK (Homo sapiens, UniProt P15382+P51787). The data set is described as follows: KvLQT1/minK ion channel assay. The format is cell-based. The note with it: SAFETYscan ion channel assay, up to 30 µM. How it is done:
Ion Channel Assays: Cell lines were grown, plated, and loaded with 1× loading buffer containing 1× dye and 2.5 mM freshly prepared probenecid. Assays were performed, and activity was measured using a FLIPR Tetra. Percent of activation and percent of inhibition were calculated to determine agonist and antagonist activity, respectively. […]
The FLIPR Potassium Assay Kit from Molecular Devices is used. It exploits the permeability of thallium ions (Tl+) through both voltage-and ligand-gated potassium (K+) channels. A novel, highly-sensiti ve
Tl+ indicator dye is utilized which produces a bright fluorescent signal upon the binding to Tl+ conducted through potassium chan-nels. […]
KINOMEscan® Assay fluorescence for improved signal/noise ratio.
The KINOMEscan screening platform employs a novel and propri- Membrane Potential Assay etary active site-directed competition binding assay to quantitatively The FLIPR® Membrane Potential Assay Kit is used which utilizes a pro-measure interactions between test compounds and the kinases. prietary fluorescent indicator dye in combination with a quencher to This robust and reliable assay technology affords investigators the reflect real-time membrane potential changes associated with ion ability to extensively annotate compounds with accurate, precise channel activation and ion transporter proteins. […]

In another data set the test system is cardiomyocytes. The following applies: cited from earlier work. The source says: Targeted delivery of therapeutics specifically to cardiomyocytes would open up new frontiers for common conditions like heart failure. […] CTP has been used to deliver imaging agents, small drug molecules, photosensitizing nanoparticles, exosomes, and even miRNA to cardiomyocytes. As a natural extension to the development of CTP as a clinically viable ... || Advances in the development of novel technologies in pharmaceutics today necessitate the development of safe and effective targeted delivery methods for cargoes such as nanoparticles, siRNA, drugs, and more. Cell-penetrating peptides (CPPs), which are small, positively charged peptides capable of crossing the cell membrane barrier, provide a promising method for intracellular delivery, which is highly efficient and minimally cytotoxic. Tat (HIV trans-activator of transcription) was the first CPP to be discovered to enter the cell and induce the expression of viral genes ... || Heart disease and cardiac illness continue to be a leading cause of death in the US [16], and, as such, novel treatments for increasingly prevalent conditions such as heart failure and atrial fibrillation are sorely needed.

For the next data set, the system named is seven ion channels. The data set is described as follows: Eurofins Ion Channel Cardiac Profiler Panel (all seven channels). The format is cell-based, human. The note with it: CTP 0.1 to 30 µM.
Data set [1] has as its system CD1, wild type, adult mice. The data set is described as follows: Cardiac MRI pre- and post-CTP injection. The format is in vivo, mouse. The note with it: male or female mice; immediately after CTP 150 µg/Kg i.v.; vs baseline. How it is done: Cardiac Function Studies, Pre- and Post-Injections: Six CD1, wild type, 6–8-week-old adult mice were obtained from the Charles River and used for cardiac MRI studies. Mice were weighed, anesthetized with 2.5% isoflurane, and ear tags removed before being inserted into the MRI scanner. A baseline cardiac MRI was performed, followed by intravenous CTP injection (150 µg/Kg). Post-injection, a second cardiac MRI was performed.

The next data set addresses CHO-hERG (Homo sapiens, UniProt Q12809).

“Also recorded” adds a separate entry of the source. Ends that are not written are not given here.

Sequence of KvLQT1/minK (P51787 whole entry): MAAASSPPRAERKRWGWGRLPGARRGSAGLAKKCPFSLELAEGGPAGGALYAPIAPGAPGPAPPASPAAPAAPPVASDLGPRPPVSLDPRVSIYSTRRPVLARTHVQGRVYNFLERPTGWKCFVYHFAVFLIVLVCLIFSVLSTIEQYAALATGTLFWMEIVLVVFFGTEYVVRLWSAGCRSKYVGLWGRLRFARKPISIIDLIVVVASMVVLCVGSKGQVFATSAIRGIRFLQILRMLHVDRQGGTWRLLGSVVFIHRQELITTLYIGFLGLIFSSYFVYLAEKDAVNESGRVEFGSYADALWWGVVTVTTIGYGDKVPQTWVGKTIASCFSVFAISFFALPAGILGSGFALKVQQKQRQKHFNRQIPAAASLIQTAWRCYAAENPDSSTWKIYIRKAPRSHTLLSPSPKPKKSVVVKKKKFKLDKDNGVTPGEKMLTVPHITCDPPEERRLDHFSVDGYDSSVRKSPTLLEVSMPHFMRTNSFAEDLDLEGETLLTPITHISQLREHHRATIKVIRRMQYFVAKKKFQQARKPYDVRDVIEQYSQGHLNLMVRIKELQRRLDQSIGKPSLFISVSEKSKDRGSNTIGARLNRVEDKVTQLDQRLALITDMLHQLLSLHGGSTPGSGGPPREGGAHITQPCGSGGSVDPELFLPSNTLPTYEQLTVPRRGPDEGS
Sequence of CHO-hERG (Q12809 whole entry): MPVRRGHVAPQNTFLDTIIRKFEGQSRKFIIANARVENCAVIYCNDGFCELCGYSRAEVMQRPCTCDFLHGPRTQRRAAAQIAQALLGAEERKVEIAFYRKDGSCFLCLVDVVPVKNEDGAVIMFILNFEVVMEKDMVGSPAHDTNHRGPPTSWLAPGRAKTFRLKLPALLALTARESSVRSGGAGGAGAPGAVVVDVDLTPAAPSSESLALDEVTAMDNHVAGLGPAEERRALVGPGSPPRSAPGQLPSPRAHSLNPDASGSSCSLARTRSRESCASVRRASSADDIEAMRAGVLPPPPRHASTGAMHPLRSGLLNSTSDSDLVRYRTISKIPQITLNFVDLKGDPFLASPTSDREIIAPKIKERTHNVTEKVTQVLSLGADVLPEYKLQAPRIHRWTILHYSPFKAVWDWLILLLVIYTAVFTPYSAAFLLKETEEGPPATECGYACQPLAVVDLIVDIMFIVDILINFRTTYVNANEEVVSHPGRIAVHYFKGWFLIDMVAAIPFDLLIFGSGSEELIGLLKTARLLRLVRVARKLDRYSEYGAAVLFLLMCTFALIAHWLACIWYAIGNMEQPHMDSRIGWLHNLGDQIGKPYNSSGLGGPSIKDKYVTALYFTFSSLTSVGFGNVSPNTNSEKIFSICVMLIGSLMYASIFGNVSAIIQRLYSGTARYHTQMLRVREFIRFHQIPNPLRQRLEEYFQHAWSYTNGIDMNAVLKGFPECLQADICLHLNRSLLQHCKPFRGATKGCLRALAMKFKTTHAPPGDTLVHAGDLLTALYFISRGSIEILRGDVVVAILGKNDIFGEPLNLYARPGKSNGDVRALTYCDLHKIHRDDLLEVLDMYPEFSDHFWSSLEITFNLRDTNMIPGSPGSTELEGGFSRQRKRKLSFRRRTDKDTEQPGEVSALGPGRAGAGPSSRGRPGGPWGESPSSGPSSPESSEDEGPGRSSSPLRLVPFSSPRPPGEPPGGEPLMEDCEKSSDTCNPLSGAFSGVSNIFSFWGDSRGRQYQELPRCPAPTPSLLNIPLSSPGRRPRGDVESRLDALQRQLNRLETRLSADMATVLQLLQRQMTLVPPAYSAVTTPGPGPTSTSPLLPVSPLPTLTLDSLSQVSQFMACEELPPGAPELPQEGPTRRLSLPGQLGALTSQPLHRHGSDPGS
Sequence of HEK-Kv4.3/KChIP2 (Q9UK17 whole entry): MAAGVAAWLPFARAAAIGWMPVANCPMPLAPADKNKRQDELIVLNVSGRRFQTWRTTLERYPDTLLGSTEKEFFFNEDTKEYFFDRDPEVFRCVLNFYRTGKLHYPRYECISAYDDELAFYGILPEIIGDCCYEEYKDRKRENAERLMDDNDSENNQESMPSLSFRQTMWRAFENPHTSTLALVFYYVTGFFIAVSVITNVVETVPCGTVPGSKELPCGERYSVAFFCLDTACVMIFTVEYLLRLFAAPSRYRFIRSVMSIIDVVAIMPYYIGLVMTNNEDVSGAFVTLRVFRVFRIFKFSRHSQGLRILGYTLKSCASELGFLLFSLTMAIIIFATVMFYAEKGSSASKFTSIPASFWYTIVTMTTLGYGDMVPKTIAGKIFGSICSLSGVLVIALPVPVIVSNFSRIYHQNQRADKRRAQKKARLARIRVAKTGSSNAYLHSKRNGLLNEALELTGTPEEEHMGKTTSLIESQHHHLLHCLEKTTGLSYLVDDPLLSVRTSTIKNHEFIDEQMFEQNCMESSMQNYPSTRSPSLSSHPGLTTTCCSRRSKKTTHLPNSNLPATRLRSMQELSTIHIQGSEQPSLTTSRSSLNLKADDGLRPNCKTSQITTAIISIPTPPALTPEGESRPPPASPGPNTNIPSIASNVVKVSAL
Sequence of HEK-Kv4.3/KChIP2 (Q9NS61 whole entry partner): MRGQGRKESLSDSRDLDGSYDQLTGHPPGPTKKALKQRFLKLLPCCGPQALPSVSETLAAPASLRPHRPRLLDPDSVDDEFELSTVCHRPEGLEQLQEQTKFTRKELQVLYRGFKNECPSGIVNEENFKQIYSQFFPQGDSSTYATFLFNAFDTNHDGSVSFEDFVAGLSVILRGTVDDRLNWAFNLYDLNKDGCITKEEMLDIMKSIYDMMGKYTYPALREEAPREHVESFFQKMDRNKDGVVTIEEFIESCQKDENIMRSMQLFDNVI

In the case of APWHLSSQYSRT [CTP], at HEK-Kv4.3/KChIP2, the “Estimated IC50” value was “N/C (Not calculable, inhibition >25% was not observed.)”. Further, the “Estimated IC50” value at CHO-KCNQ1/minK is “N/C (Not calculable, inhibition >25% was not observed.)”. On KvLQT1/minK, the blocking or activation entry is “no significant blocking or activation” and the opening action result is recorded as “nor any significant opening action”. The “cell specificity in the heart” value in the data set on cardiomyocytes (fibroblasts, endothelial cells, myofibroblasts spared, ref [19]) is “targets cardiomyocytes specifically while sparing the other cells”. The “time to targeting of cardiomyocytes after intravenous injection” value in the data set on cardiomyocytes (intravenous injection, "in as little as", ref our prior work) is recorded as around 5 min. The “time to transduction of cardiomyocytes after intravenous injection” value in the data set on cardiomyocytes (peripheral intravenous injection, "in as little as", ref [6],[15]) is given as around 15 min. Besides, in the data set with cardiomyocytes (ref [15]), the “blood–brain barrier crossing” value is recorded as “does not cross the blood–brain barrier” and the “uptake by other tissues” value is given as “not taken up by the lungs, spleen, or other muscle subtypes”. Besides, the IC50 values result in the data set with seven ion channels (seven ion channels) is reported as “not calculable”. In addition, the “inhibition/activation across all seven ion channels” value with seven ion channels (vs control substances) is “no inhibition/activation was observed; also recorded: did not inhibit the activation of any tested”. Besides, in data set [1], the cardiac output result is on record as “no significant change”, the ejection fraction entry is on record as “no significant change”, the heart rate entry is “no significant change” and the left ventricular mass result was “no significant change”. The “Estimated IC50” value on CHO-hERG is reported as “N/C (key: N/C: Not calculable, inhibition >25% was not observed.)”.

These data come from PMC10818749, “Toxicity Studies of Cardiac-Targeting Peptide Reveal a Robust Safety Profile” (Pharmaceutics, 2024).
